These results are taken from patent US10364256B2 (GlaxoSmithKline Intellectual Property Development Limited, priority 2015, dated 2019).

The target in assay [1] is T1, full length Keap1 protein / full length NRF2 protein (Homo sapiens, UniProt Q14145).
T1 construct: full length NRF2 protein and full length Keap1 protein (Keap1 exists a dimer) are used; His
The assay is described as follows: NRF2-Keap1 TR-FRET Assay. The format is binding. The following applies: 25 nM Keap1-FlagHis and 50 nM biotin-NRF2 added. An excerpt:
In the NRF2-Keap1 TR-FRET (time-resolved fluorescence resonance energy transfer) assay, full length NRF2 protein and full length Keap1 protein (Keap1 exists a dimer) are used. The assay detects the ability of compound to displace the binding of FlagHis-tagged Keap1 with biotinylated, Avi-tagged NRF2 protein. Biotin-NRF2 binds to streptavidin-europium (a component of the detection mix) and Keap1-FlagHis is recognized by anti-Flag APC (allophycocyanin) antibody (also a component of the detection mix). If binding occurs between the two proteins, there will be an energy transfer from the Eu+3 (donor) at 615 nm to the APC (acceptor) at 665 nm. A potential Keap1 inhibitor will cause a reduction in the TR-FRET signal by interfering with the binding of Keap1 to NRF2.
One hundred nanoliters of 100× compound dose response curves (serial 3-fold dilutions) in DMSO are stamped using an Echo liquid handling system (Labcyte) into 384-well, low volume, black assay plates (Greiner, #784076), with DMSO in columns 6 and 18. The top concentration of compound is located in columns 1 and 13. All reagents are diluted in assay buffer (50 mM Tris, pH 8.0, 5 mM MgCl2, 100 mM NaCl, 0.005% BSA, 1 mM DTT, and 2 mM CHAPS). The BSA, DTT, and CHAPS are added to the assay buffer on the day of assay. Using a Multidrop Combi (Thermo Electron Corporation) equipped with a metal tip dispenser, 5 ul of 25 nM Keap1-FlagHis protein is added to all wells of the compound plate, with the exception of the wells in column 18. Wells in column 18 receive 5 ul of assay buffer instead. Plates are centrifuged at 500 rpm for 1 minute, covered with a plate lid, and incubated at 37° C. for 2.25 hours. Plates are then removed from the incubator and allowed to cool to RT for 15 minutes. Five microliters of 50 nM biotin-NRF2 protein is then added to all wells of the plates and the plates are spun at 500 rpm for 1 minute, followed by incubating at 4° C. for 1.25 hours. The plates are then allowed to warm to RT for 15 minutes, followed by the addition of 10 ul of detection mix (1 nM Streptavidin Eu+ W1024 and 5 ug/ml mouse anti-DYKDDDDK IgG conjugated to SureLight APC antibody; both from Columbia Biosciences) to all wells. Plates are spun at 500 rpm for 1 minute, incubated for 1 hour at RT, and read on an Envision plate reader using a 320 nm excitation filter and 615 nm and 665 nm emission filters. Compound response (% inhibition) and potency (pIC50) are calculated based on the ratio of the two emissions (665 nm/615 nm) and then the transformed data is normalized against controls in the assay (control 1=1% DMSO in the presence of NRF2 and Keap1 protein and control 2=1% DMSO in the absence of protein). Data analysis is handled using the software package Abase XE (Surrey, United Kingdom). The % inhibition values are calculated from the ratio (transformed) data by the equation: 100−(100*(compound response−average control 2)/(average control 1−average control2)). For calculation of pIC50s, Abase XE uses a four parameter equation. pIC50 is the negative log of the IC50.

For assay [2], the system named is NQO1 specific enzyme activity in BEAS-2B cells (marker for NRF2 activation). As to the kind of experiment: BEAS-2B NQO1 MTT Assay. The following applies: Homo sapiens. The format is cell-based. In a few lines: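 NQO1 specific activity induction is derived from the rate of MTT reduction (ΔOD/min, 570 nm, 30 min kinetic read) in crude lysates of BEAS-2B cells exposed to compound for 48 h. A 3-parameter fit gives EC50, reported as pEC50; part of each lysate goes to Cell Titer Glo.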

The target in assay [3] is T2, Keap1 Kelch domain (321-609) / TAMRA-labeled 16mer NRF2 peptide (ETGE motif) (Homo sapiens, UniProt Q14145).
T2 construct: the Kelch domain (321-609) of Keap1 is used
As to the kind of experiment: NRF2-Keap1 FP Assay (Keap1 Kelch fluorescence polarization). The format is binding. The following applies: 20 nM Keap1 (321-609), 8 nM Tamra labeled peptide. A digest of the protocol: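 Compound dilutions (3-fold) were incubated 1 hr at room temperature with 20 nM Keap1 Kelch (321-609) and 8 nM TAMRA-labeled ETGE 16mer peptide. Buffer was 50 mM Tris pH 8.0, 100 mM NaCl, 5 mM MgCl2, 1 mM DTT, 2 mM CHAPS, 0.005% BSA. Fluorescence polarization (mP) was normalized to controls and fitted with a four-parameter equation to give pIC50.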

Assay [4] deals with T1, full length Keap1 protein / full length NRF2 protein. As to the kind of experiment: NRF2-Keap1 TR-FRET Low Protein Assay. In kind it is binding. The conditions noted are these: 1.25 nM Keap1 FlagHis and 2.5 nM biotin-NRF2 added. In a few lines:
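Flag-tagged full-length Keap1 was preincubated with compound (3-fold series) for 2.25 h at 37 °C in Tris pH 8.0/MgCl2/NaCl/BSA/DTT/CHAPS. Biotin-Avi-NRF2 (added at 2.5 nM) was then bound for 1.25 h at 4 °C. Eu-streptavidin/anti-Flag-APC TR-FRET (665/615 nm) was read after 1 h at RT, and pIC50 came from a four-parameter fit.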

Where [5] appears, read: compound incubated 48 hours, read-out: EC50 (NQO1 specific enzyme activity induction).

Where two headings read alike, the source gives them in different places. Some results are limits rather than exact numbers.

T2 sequence (Q14145 321-609): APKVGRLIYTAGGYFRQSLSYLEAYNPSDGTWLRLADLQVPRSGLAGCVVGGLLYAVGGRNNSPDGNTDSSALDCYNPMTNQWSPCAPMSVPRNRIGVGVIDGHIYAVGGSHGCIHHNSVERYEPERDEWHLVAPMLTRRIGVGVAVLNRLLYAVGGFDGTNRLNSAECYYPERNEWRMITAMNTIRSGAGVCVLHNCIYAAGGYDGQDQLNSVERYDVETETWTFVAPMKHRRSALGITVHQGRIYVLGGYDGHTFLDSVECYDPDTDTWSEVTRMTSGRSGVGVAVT
T1 sequence (Q14145 whole entry): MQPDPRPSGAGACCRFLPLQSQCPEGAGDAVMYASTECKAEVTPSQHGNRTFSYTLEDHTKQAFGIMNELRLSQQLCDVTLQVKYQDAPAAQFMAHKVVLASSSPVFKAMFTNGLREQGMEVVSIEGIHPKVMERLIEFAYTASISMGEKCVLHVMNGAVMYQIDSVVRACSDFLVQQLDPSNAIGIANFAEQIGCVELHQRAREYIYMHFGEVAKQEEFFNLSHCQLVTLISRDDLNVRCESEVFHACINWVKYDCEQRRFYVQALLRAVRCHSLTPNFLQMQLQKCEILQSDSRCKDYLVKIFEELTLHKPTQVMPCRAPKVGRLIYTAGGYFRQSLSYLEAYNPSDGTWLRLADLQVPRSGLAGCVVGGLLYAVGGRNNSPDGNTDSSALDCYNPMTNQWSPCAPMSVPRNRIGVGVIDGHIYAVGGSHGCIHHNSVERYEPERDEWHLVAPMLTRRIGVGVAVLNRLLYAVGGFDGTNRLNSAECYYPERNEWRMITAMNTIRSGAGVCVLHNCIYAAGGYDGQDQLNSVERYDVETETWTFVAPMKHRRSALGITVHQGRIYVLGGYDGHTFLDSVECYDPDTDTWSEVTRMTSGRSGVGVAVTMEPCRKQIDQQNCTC

In the case of `CC(=O)N[C@@H]1CC[C@H](c2c(C(=O)O)cnn2-c2cccc(-c3cccc(OC(C)C)c3F)c2)C1` (racemic) [Example 13, 5-[(cis)-3-Acetamidocyclopentyl]-1-{3-[2-fluoro-3-(propan-2-yloxy)phenyl]phenyl}-1H-pyrazole-4-carboxylic Acid], the IC50 in assay [1] lay within 10000 to 100000 nM; in assay [3], 1000 to 10000 nM. In addition, the EC50 in assay [2] (setting [5]) is 1000 to 10000 nM.

Take `Cn1cc([C@H]2C[C@@H]2c2c(C(=O)O)cnn2-c2cccc(-c3cccc(OCC(C)(C)C)c3)c2)nn1` (racemic) [Example 226, 5-((1,2-trans)-2-(1-Methyl-1H-1,2,3-triazol-4-yl)cyclopropyl)-1-(3′-(neopentyloxy)-[1,1′-biphenyl]-3-yl)-1H-pyrazole-4-carboxylic acid]: the IC50 in assay [1] and in assay [3] was 100 to 1000 nM in each case. Moreover, the half-maximal effective concentration (EC50) in assay [2] (setting [5]) lay in the range of 10 to 100 nM.

Regarding `Cn1cc([C@H]2C[C@@H]2c2c(C(=O)O)cnn2-c2cccc(-c3cccc(OCc4cncnc4)c3)c2)nn1` (racemic) [Example 236, 5-((1,2-trans)-2-(1-Methyl-1H-1,2,3-triazol-4-yl)cyclopropyl)-1-(3′-(pyrimidin-5-ylmethoxy)-[1,1′-bipheny1]-3-yl)-1H-pyrazole-4-carboxylic acid], the IC50 in assay [1] was in the range of 1000 to 10000 nM; in assay [3] it was 100 to 1000 nM. Also, the EC50 in assay [2] (setting [5]) was in the range of 1000 to 10000 nM.

As to `Cn1cc([C@@H]2C[C@H]2c2c(C(=O)O)cnn2-c2cccc(-c3cccc(CN4CCCCC4)c3)c2)nn1` (racemic) [Example 247, 5-(trans-2-(1-Methyl-1H-1,2,3-triazol-4-yl)cyclopropyl)-1-(3′-(piperidin-1-ylmethyl)-[1,1′-biphenyl]-3-yl)-1H-pyrazole-4-carboxylic Acid], the IC50 in assay [1] is 1000 to 10000 nM; in assay [3] it was 100 to 1000 nM. The EC50 in assay [2] (setting [5]) fell in the range of 1000 to 10000 nM.

With `Cn1cc([C@@H]2C[C@H]2c2c(C(=O)O)cnn2-c2cccc(-c3cccc(CN4CCOCC4)c3)c2)nn1` (racemic) [Example 248, 5-(trans-2-(1-Methyl-1H-1,2,3-triazol-4-yl)cyclopropyl)-1-(3′-(morpholinomethyl)-[1,1′-biphenyl]-3-yl)-1H-pyrazole-4-carboxylic Acid], the half-inhibitory concentration (IC50) in assay [1] and in assay [3] was 100 to 1000 nM throughout. For the same compound, the EC50 in assay [2] (setting [5]) was in the range of 1000 to 10000 nM.

Consider `CN(CC1CC1)C(=O)c1cccc(-c2cccc(-n3ncc(C(=O)O)c3[C@@H]3C[C@H]3c3cn(C)nn3)c2)c1F` (racemic) [Example 265], for which the half-inhibitory concentration (IC50) in assay [1] and in assay [3] was 10 to 100 nM throughout. The EC50 in assay [2] (setting [5]) fell in the range of 1000 to 10000 nM.

On to `CCC[C@@H]1CCCCN1C(=O)c1cccc(-c2cc(C)cc(-n3ncc(C(=O)O)c3[C@H]3C[C@@H]3c3cn(C)nn3)c2)c1` (single isomer, unassigned) [Example 156], for which the 50% inhibitory concentration (IC50) in assay [1] and in assay [3] was 100 to 1000 nM each time. The concentration for a half-maximal effect (EC50) in assay [2] (BEAS-2B, 48 h, compound incubated 48 hours, read-out: EC50 (NQO1 specific enzyme activity induction)) lay within 100 to 1000 nM.

In the case of `CN(C)C(=O)c1cccc(-c2cccc(-n3ncc(C(=O)O)c3C3CCCC3)c2)c1F` [Example 1, 5-Cyclopentyl-1-{3-[3-(dimethylcarbamoyl)-2-fluorophenyl]phenyl}-1H-pyrazole-4-carboxylic Acid], the IC50 in assay [1] lay within 10000 to 100000 nM; in assay [3] it was 100 to 1000 nM. In assay [2] (setting [5]), the EC50 fell in the range of 1000 to 10000 nM.

With `CN(C)C(=O)c1cccc(-c2cccc(-n3ncc(C(=O)O)c3C(F)(F)F)c2)c1F` [Example 2, 1-{3-[3-(Dimethylcarbamoyl)-2-fluorophenyl]phenyl}-5-(trifluoromethyl)-1H-pyrazole-4-carboxylic Acid], the IC50 was in the range of 1000 to 10000 nM in assay [1] and 100 to 1000 nM in assay [3]. Moreover, the 50% effective concentration (EC50) in assay [2] (setting [5]) lay within 1000 to 10000 nM.

For `CN(C(=O)c1cccc(-c2cccc(-n3ncc(C(=O)O)c3C3CC3)c2)c1F)C1CCCC1` [Example 3, 1-(3-{3-[Cyclopentyl(methyl)carbamoyl]-2-fluorophenyl}phenyl)-5-cyclopropyl-1H-pyrazole-4-carboxylic Acid], the half-maximal inhibitory concentration (IC50) in assay [1] was 1000 to 10000 nM; in assay [3] it was 100 to 1000 nM. Besides, the EC50 in assay [2] (setting [5]) was in the range of 1000 to 10000 nM.

As for `CC(C)CN(C)C(=O)c1cccc(-c2cccc(-n3ncc(C(=O)O)c3C3CC3)c2)c1F` [Example 4, 5-Cyclopropyl-1-(3-{2-fluoro-3-[methyl(2-methylpropyl)carbamoyl]phenyl}phenyl)-1H-pyrazole-4-carboxylic Acid], the IC50 was 1000 to 10000 nM in assay [1] and 100 to 1000 nM in assay [3]. For the same compound, the EC50 in assay [2] (setting [5]) is 1000 to 10000 nM.

Turning to `CN(C(=O)c1cccc(-c2cccc(-n3ncc(C(=O)O)c3C3CC3)c2)c1F)C1CCCCC1` [Example 5, 1-(3-{3-[Cyclohexyl(methyl)carbamoyl]-2-fluorophenyl}phenyl)-5-cyclopropyl-1H-pyrazole-4-carboxylic Acid], the IC50 in assay [1] fell in the range of 1000 to 10000 nM; in assay [3], 100 to 1000 nM. In addition, the concentration giving a half-maximal response (EC50) in assay [2] (setting [5]) is 1000 to 10000 nM.

With `CC1(C)CCCN(C(=O)c2cccc(-c3cccc(-n4ncc(C(=O)O)c4C4CC4)c3)c2F)C1` [Example 6, 5-Cyclopropyl-1-{3-[3-(3,3-dimethylpiperidine-1-carbonyl)-2-fluorophenyl]phenyl}-1H-pyrazole-4-carboxylic Acid], the 50% inhibitory concentration (IC50) in assay [1] fell in the range of 100 to 1000 nM; in assay [3], 10 to 100 nM. The EC50 in assay [2] (setting [5]) was in the range of 1000 to 10000 nM.

As to `O=C(O)c1cnn(-c2cccc(-c3cccc(C(=O)N4CCCCCC4)c3F)c2)c1C1CC1` [Example 7, 1-{3-[3-(azepane-1-carbonyl)-2-fluorophenyl]phenyl}-5-cyclopropyl-1H-pyrazole-4-carboxylic Acid], the values for the concentration for half-maximal inhibition (IC50) in assay [1] and in assay [3] were 1000 to 10000 nM and 10 to 100 nM, respectively. The EC50 in assay [2] (setting [5]) was in the range of 1000 to 10000 nM.

Regarding `CC[C@@H]1CN(Cc2cccc(-c3cccc(-n4ncc(C(=O)O)c4[C@@H]4C[C@H]4c4cn(C)nn4)c3)c2)S(=O)(=O)c2ccccc2O1` [Example 255, 1-(3′-(((R)-4-Ethyl-1,1-dioxido-3,4-dihydro-2H-benzo[b][1,4,5]oxathiazepin-2-yl)methyl)-[1,1′-biphenyl]-3-yl)-5-(trans-2-(1-methyl-1H-1,2,3-triazol-4-yl)cyclopropyl)-1H-pyrazole-4-carboxylic Acid], the results for the IC50 in assay [4] and in assay [3] were below 10 nM and 10 to 100 nM, respectively. For the same compound, the EC50 is 100 to 1000 nM in assay [2] (setting [5]) and above 1000 nM in assay [2] (in two determinations (footnote ϕ), read-out: EC50 in two determinations).

As for `CC[C@@H]1CN(C(=O)c2cccc(-c3cccc(-n4ncc(C(=O)O)c4[C@@H]4C[C@H]4c4cn(C)nn4)c3)c2)Cc2ccccc2O1` [Example 257], the concentration for half-maximal inhibition (IC50) in assay [4] is below 10 nM; in assay [3] it was 10 to 100 nM. For the same compound, the EC50 in assay [2] (setting [5]) was 1000 to 10000 nM.
